Data on nine molecules can be found in patent US8846739B2, “TGR5 agonists” (Exelixis Patent Company LLC, priority 2009, dated 2014).

Experiment [1] deals with T1, human TGR5 (h-TGR5) (Homo sapiens, UniProt Q8TDU6).
T1 sequence (Q8TDU6 1-330): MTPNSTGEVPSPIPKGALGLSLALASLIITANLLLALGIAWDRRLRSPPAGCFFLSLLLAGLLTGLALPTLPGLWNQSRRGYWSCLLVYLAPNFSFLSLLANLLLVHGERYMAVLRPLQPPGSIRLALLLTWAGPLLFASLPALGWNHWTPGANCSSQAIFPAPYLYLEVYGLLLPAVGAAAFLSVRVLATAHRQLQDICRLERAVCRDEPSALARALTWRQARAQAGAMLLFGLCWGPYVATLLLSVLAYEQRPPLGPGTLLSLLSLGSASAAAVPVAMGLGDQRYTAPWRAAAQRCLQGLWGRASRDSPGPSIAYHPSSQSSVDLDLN
Put plainly: TGR5/CRE-Luciferase Assay. The format is cell-based. As to conditions: HEK 293 hTGR5/CRE-Luc cells, 6 hours incubation, read-out: CRE-Luc Agonist (EC50). In short, it runs like this:
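HEK 293 CRE-Luciferase cells stably expressing the receptor, plated in DMEM 18-20 h before assay, then exposed to serially diluted compounds (DMEM with 5% DMSO) for 6 h. Luciferase read-out after lysis; EC50 from dose-response.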

The target of experiment [2] is T2, h-TGR5 (Homo sapiens, UniProt Q8TDU6).
T2 sequence (Q8TDU6 1-330): T1 sequence (Q8TDU6 1-330)
Put plainly: TGR5 cAMP Assay using Cisbio cAMP Dynamic 2 htrf assay kit. The format is cell-based. As to conditions: hTGR5CRE-luc HEK 293 cells.

One may read the EC50 as the concentration needed to bring the measured effect to its halfway point. Regarding `COc1cc(C(C)(C)c2cnc(SCc3c(F)cc(S(=O)(=O)NCC4CC[N+](C)(C)CC4)cc3Cl)n2-c2ccc(F)cc2)ccc1F` [Compound 11s, 4-[({[3-chloro-5-fluoro-4-({[5-{1-[4-fluoro-3-(methyloxy)phenyl]-1-methylethyl}-1-(4-fluorophenyl)-1H-imidazol-2-yl]thio}methyl)phenyl]sulfonyl}amino)methyl]-1,1-dimethylpiperidinium], the 50% effective concentration (EC50) in experiment [1] and in experiment [2] was under 100 nM in each case.
As to `COc1cc(C(C)(C)c2cnc(SCc3c(F)cc(S(=O)(=O)N(CCCO)CCC[N+](C)(C)C)cc3F)n2-c2ccc(F)cc2)ccc1Cl` [Compound 12g, 3-(4-((5-(2-(4-chloro-3-methoxyphenyl)propan-2-yl)-1-(4-fluorophenyl)-1H-imidazol-2-ylthio)methyl)-3,5-difluoro-N-(3-hydroxypropyl)phenylsulfonamido)-N,N,N-trimethylpropan-1-aminium 2,2,2-trifluoroacetate], the EC50 in experiment [1] and in experiment [2] was under 100 nM in each case.
In the case of `COc1cc(C(C)(C)c2cnc(SCc3c(F)cc(S(=O)(=O)N4CC[C@@H](C[N+](C)(C)C)C4)cc3Cl)n2-c2ccc(F)cc2)ccc1F` [Compound 11v, [(3S)-1-{[3-chloro-5-fluoro-4-({[5-(1-[4-fluoro-3-(methyloxy)phenyl]-1-methylethyl}-1-(4-fluorophenyl)-1H-imidazol-2-yl]thio}methyl)phenyl]sulfonyl}pyrrolidin-3-yl]-N,N,N-trimethylmethanaminium], the EC50 in experiment [1] and in experiment [2] was under 100 nM in each case.
As to `COc1cc(C(C)(C)c2cnc(SCc3c(F)cc(S(=O)(=O)N(CCC[N+](C)(C)C)[C@H](C(=O)O)C(C)C)cc3F)n2-c2ccc(F)cc2)ccc1Cl` [Compound 14p, 3-([(1S)-1-carboxy-2-methylpropyl]{[4-({[5-{1-[4-chloro-3-(methyloxy)phenyl]-1-methylethyl}-1-(4-fluorophenyl)-1H-imidazol-2-yl]thio}methyl)-3,5-difluorophenyl]sulfonyl}amino)-N,N,N-trimethylpropan-1-aminium], the EC50 in experiment [1] and in experiment [2] was under 100 nM throughout.
For `COc1cc(C(C)(C)c2cnc(SCc3c(F)cc(S(=O)(=O)N4CC(C[N+](C)(C)C)C4)cc3Cl)n2-c2ccc(F)cc2)ccc1Cl` [Compound 11r, (1-{[3-chloro-4-({[5-{1-[4-chloro-3-(methyloxy)phenyl]-1-methylethyl}-1-(4-fluorophenyl)-1H-imidazol-2-yl]thio}methyl)-5-fluorophenyl]sulfonyl}azetidin-3-yl)-N,N,N-trimethylmethanaminium], the concentration giving a half-maximal response (EC50) in experiment [1] and in experiment [2] was under 100 nM each time.
For `COc1cc(C(C)(C)c2cnc(SCc3c(F)cc(S(=O)(=O)N(CCC[N+](C)(C)C)[C@H](C)CC(=O)O)cc3Cl)n2-c2ccc(F)cc2)ccc1Cl` [Compound 14aj, (R)-3-(N-(1-carboxypropan-2-yl)-3-chloro-4-((5-(2-(4-chloro-3-methoxyphenyl)-propan-2-yl)-1-(4-fluorophenyl)-1H-imidazol-2-ythio)methyl)-5-fluorophenyl-sulfonamido)-N,N,N-trimethylpropan-1-aminium 2,2,2-trifluoroacetate], the concentration for a half-maximal effect (EC50) in experiment [1] and in experiment [2] was under 100 nM throughout.
Turning to `COc1cc(C(C)(C)c2cnc(SCc3c(F)cc(S(=O)(=O)N4CCC([N+](C)(C)C)CC4)cc3Cl)n2-c2ccc(F)cc2)ccc1F` [Compound 11o, 1-{[3-chloro-5-fluoro-4-({[5-{1-[4-fluoro-3-(methyloxy)phenyl]-1-methylethyl}-1-(4-fluorophenyl)-1H-imidazol-2-yl]thio}methyl)phenyl]sulfonyl}-N,N,N-trimethylpiperidin-4-aminium], the 50% effective concentration (EC50) in experiment [1] and in experiment [2] was under 100 nM each time.
Regarding `CC[N+](CC)(CC)CC#Cc1cc(F)c(CSc2ncc(C(C)(C)c3ccc(Cl)c(OC)c3)n2-c2ccc(F)cc2)c(F)c1` [Compound 18a, 3-(4-((-5-(2-(4-chloro-3-methoxyphenyl)propan-2-yl)-1-(4-fluorophenyl)-1H-imidazol-2-ylthio)methyl)-3,5-difluorophenyl)-N,N,N-triethylprop-2-yn-1-aminium chloride], the EC50 in experiment [1] and in experiment [2] was under 100 nM throughout.
Regarding `COc1cc(C(C)(C)c2cnc(SCc3c(F)cc(S(=O)(=O)N(CCC[N+](C)(C)C)CC(=O)O)cc3F)n2-c2ccc(F)cc2)ccc1Cl` [Example 12], the EC50 in experiment [1] and in experiment [2] was under 100 nM each time.
